Measured values published in patent US20190048052A1, “ANTI-MICROBIAL PEPTIDES AND COATINGS” (Board of Regents of the University of Nebraska, priority 2016, published 2019).
Values after ≈ are worked out from the molar mass of the structure shown. Residues, ends and D or L forms follow the SMILES beside them.

Key:
ESKAPE pathogens = format: cell-based
Protocol: (§1) Bacterial strains used in this study included Enterococcus faecium ATCC51559, Staphylococcus aureus USA300 LAC, Klebsiella pneumoniae ATCC 13883, Acinetobacter baumannii B2367-12, Pseudomonas aeruginosa PAO1, Enterobacter cloacae B2366-12 and Escherichia coli ATCC 25922, wherein the first six constituting the ESKAPE pathogens. Tryptic soy broth (TSB) for bacterial growth was obtained from BD Bioscience (Sparks, Md.).
(§2) The antibacterial activity of peptides was evaluated using a standard broth microdilution protocol as described (Wang et al. (2012) Antimicrob. Agents Chemother., 56:845-856). In brief, 5 μl of each bacterium (stored at −80° C.) were inoculated into TSB medium (2 ml) and grown overnight. A second inoculation was made in the morning by delivering 10 μl of the overnight culture to a fresh TSB medium. After 2-3 hours growth at 37° C., 225 rpm, logarithmic phase bacterial cultures (OD600≈0.5) were diluted and partitioned into a 96-well polystyrene microplate with ˜10^5 colony forming units (CFU) per well (90 μl aliquots). After treatment with 10 μl of peptide solutions at various concentrations, microplates were incubated at 37° C. overnight and read on a ChroMate® 4300 Microplate Reader at 630 nm (GMI, Ramsey, Minn.). The medium was used as a blank where no bacteria should grow.

[1] = tested on: human red blood cells (hRBC); format: cell-based; conditions: red cells of human
Protocol: Blood was obtained from the Blood Bank of the University of Nebraska Medical Center (UNMC) and washed three times (800 g, 10 minutes) with normal saline to remove plasma. A final solution containing 2% human red blood cells (hRBC) was then prepared in normal saline and used for the assay. 90 μl of this solution were added to 10 μl of serially diluted peptide solutions and incubated at 37° C. for 1 hour. It was then centrifuged at 15,700 g for 5 minutes on an Eppendorf® bench-top centrifuge 5415D. Aliquots of the supernatant (˜80 μl) were carefully transferred to a fresh 96-well microplate (Costar, Corning, N.Y.) and absorbance was read at 545 nm to detect the amount of hemoglobin released. Percent lysis was calculated based on the extent of hemoglobin released, where 100% release is assumed in the presence of 1% TRITON™ X-100 and 0% release is assumed in saline.

P. aeruginosa PAO1 = format: cell-based, Pseudomonas aeruginosa; conditions: PAO1
Protocol: as §1, §2

[2] = Cytotoxicity of soluble peptide (MTS); format: cell-based; conditions: human, HaCaT cells; free peptide; read-out: 50% lethal concentration (LC50) to HaCaT cells
Protocol: In vitro spontaneously transformed keratinocytes from histologically normal human skin (HaCaT cells) from Fisher (Hampton, N.H.) (Cat # T0020001) were maintained in DMEM high glucose medium with 4 mM L-glutamine (HyClone, South Logan, Utah) and 100 U ml^−1 penicillin, 100 μg ml^−1 streptomycin (pen/strep, p/s) (Life Technologies, Carlsbad, Calif.), and 10% (v v^−1) inactivated fetal bovine serum (FBS, NyClone), DMEM with 10% FBS, p/s. Cells were grown in 5% CO2 at 37° C. and were detached from culturing dish at 100% confluency by treating with 0.025% trypsin-EDTA (NyClone), seeded (100,000 cells well^−1) in 24-well plates (Corning Life Science, Salt Lake City, Utah) and grown overnight in 200 μl of DMEM medium to reach a 70% confluency. The peptide-coated surfaces (1.0×1.0 cm) were placed in a 24-well plate DMEM with or without 10% FBS, p/s for 1 hour. Samples were taken out and 60 μl of CellTiter96® MTS were added. Plates were further incubated for another 2 hours at 37° C. Subsequently, 100 μl of the solution were placed in a clean 96-well plate to measure the absorbance at 492 nm on a ChroMate® reader (GMI). For comparison, the toxicity of the soluble peptides was also measured and they were treated in the same way as described above. The culture medium and a 0.2% SDS solution were used as negative and positive controls, respectively.

E. faecium ATCC51559 = format: cell-based, Enterococcus faecium; conditions: ATCC51559
Protocol: as §1, §2

E. cloacae B2366-12 = format: cell-based, Enterobacter cloacae; conditions: B2366-12
Protocol: as §1, §2

S. aureus USA300 LAC = format: cell-based, Staphylococcus aureus; conditions: USA300
Protocol: as §1, §2

A. baumannii B2367-12 = format: cell-based, Acinetobacter baumannii; conditions: B2367-12
Protocol: as §1, §2

E. coli ATCC 25922 [3] = format: cell-based, Escherichia coli; conditions: ATCC 25922
Protocol: as §1, §2

human red blood cells = test: Hemolytic ability (Example 3); format: cell-based; conditions: concentration that causes 50% hemolysis
Protocol: Hemolytic analysis of selected peptides was performed using an established protocol. Briefly, human blood cells (UNMC Blood Bank) were washed three times with phosphate buffer saline (PBS) and diluted to a 2% solution. After peptide treatment, incubation at 37° C. for one hour, and centrifugation at 13,000 rpm, aliquots of the supernatant were transferred to a fresh 96-well microplate. To assess peptide cytotoxicity, the amount of hemoglobin released was measured at 545 nm. The percent lysis was calculated by assuming 100% release when human blood cells were treated with 1% TRITON™ X-100, and 0% release when incubated with PBS buffer.

E. coli ATCC 25922 [4] = format: cell-based, Escherichia coli; conditions: ATCC 25922, 20 h
Protocol: (§3) The antimicrobial activity of peptides was evaluated using a standard broth microdilution protocol. In brief, exponential phase bacteria at 10^6 CFU were incubated with serially diluted peptides overnight for ˜20 hours at 37° C. The plates were read on a ChroMate® 4300 Microplate Reader at 630 nm (GMI, Ramsey, Minn.).

S. aureus USA300 [5] = test: Growth inhibition in TSB media (FIG. 15A); format: cell-based, Staphylococcus aureus; conditions: 3.1 μM (printed 3.1 LM), 37° C.
Protocol: FIGS. 15A and 15B show the growth inhibition (FIG. 15A) and propidium iodide-based membrane permeation (FIG. 15B) of S. aureus USA300 in TSB media by 3.1 μM of TetraF2W-RR and its single arginine variants (Table 8) at 37° C. with shaking at 100 rpm.
Fluorescence spectroscopy was also used to follow bacterial killing. In brief, μL of serially diluted 10× peptide concentrations were done in 96-well coming COSTAR microtiter plates. Propidium iodide at a fixed concentration of 20 μM per well was added to each well which was finally incubated with 88 μL of S. aureus USA300 (with a final OD600 0.1) with continuous shaking at 100 rpm with meander corner well shaking, 37° C. in a FLUOstar® Omega (BMG LABTECH Inc., NC) microplate reader. The plates were read every 5 minutes for a total duration of 2 hours with excitation and emission wavelengths at 584 nm and 620 nm, respectively.

S. aureus USA300 [6] = test: Live cell penetration experiment (FITC, confocal); format: cell-based, Staphylococcus aureus; conditions: peptide and FITC 12.5 μM
Protocol: The entrance of a fluorescent dye into live bacterial cells was followed by confocal microscopy (Mishra et al. (2015) RSC Advances 5:59758-59769). In short, S. aureus USA300 was grown to the exponential phase from the overnight culture. The cells were then washed twice with fresh 1×PBS (pH 7.2) and the final cell density was adjusted to 1×10^8 CFU/mL. 1500 μL of the culture was added to the chambers of cuvettes (borosilicate cover glass systems) with equimolar concentrations of TetraF2W-RK and fluorescein isothiocyanate FITC (12.5 μM). The samples were examined with a confocal laser scanning microscope (Zeiss 710) with a series of live time pictures taken at every 5 seconds for 5 minutes and the data were processed using Zen 2010 software.

S. aureus USA300 [7] = test: Confocal microscopy of preformed biofilms (Example 3); format: cell-based, Staphylococcus aureus
Protocol: S. aureus USA300 (10^5 CFU/mL) was made from exponentially growing bacteria. 1800 μL was added to the chamber of cuvettes (Borosilicate cover glass systems), and was incubated for 37° C., 24 hours for biofilm formation. Media was then pipetted out and chambers were washed with 1×PBS to remove non-adhered cells. To disrupt the preformed biofilms, 200 μL of 10× stocks of the peptide was added followed by 1800 μL of TSB. Control cuvettes contained water instead of peptide. The cuvettes were again incubated for another 24 hours at 37° C. Subsequently, the supernatant was pipetted out and the chambers were washed with 1×PBS. For evaluation under confocal microscope the biofilms were stained with 10 μL of LIVE/DEAD® kit (Invitrogen Molecular Probes) according to the manufacturer's instructions. The samples were examined with a confocal laser scanning microscope (Zeiss 710) and the data processed using Zen 2010 software.

S. aureus USA300 [8] = format: cell-based, Staphylococcus aureus
Protocol: as §3

S. aureus USA300 [9] = format: cell-based, Staphylococcus aureus; conditions: 12.5 μM
Protocol: Two types of experiments were conducted to evaluate the anti-biofilm activity of these peptides against S. aureus USA300 grown under a static condition for 24 hours to form established biofilms in presence of tryptic soy broth (TSB). The experiment was set up using a flat bottom, 96-well, polystyrene microtiter plates (Corning, COSTAR). In short, S. aureus USA300 (10^5 CFU/mL) in fresh TSB media was made from an exponentially growing culture. 200 μL of this bacterial culture was added to each well of the microtiter plates. The plates are then incubated at 37° C. for 24 hours to allow biofilm formation. Media was then carefully removed followed by washing with sterile 1×PBS to remove any unattached bacteria. Solution containing μL of 10× peptide solution and 180 μL of fresh TSB were added. The plates were again incubated at 37° C. for another 24 hours. To measure the extent of biofilm disruption by the peptides as a function of biofilm reduction, crystal violet staining was performed. Media was pipetted out and the wells were carefully washed with 200 μL of PBS to remove the loosely attached cells. Subsequently, 200 μL of 99% methanol was added for fixation and the plates were allowed to sit for 15 minutes. The plates were finally aspirated and dried. Lastly, staining was done with 200 μL of 1% crystal violet in water for 5 minutes. Excess stain was gently rinsed off with tap water, and plates were air-dried. Further, stains were solubilized in 200 μL of 33% glacial acetic acid followed by colorimetric measurement at 600 nm on a Chromate® microtiter plate reader. The amounts of biofilm growth with and without compound treatments were calculated.
In addition, live cell contents of the peptide acted biofilms was estimated by XTT [2,3-bis(2-methyloxy-4-nitro-5-sulfophenyl)-2H-tertazolium-5-carboxanilide]assay by following the manufacturer's instructions with modifications. A 10% XTT solution in TSB media was added to each well and the plates were again incubated for 2 hours at 37° C. Absorbance at 450 nm (only media with XTT containing wells served as the blank) was obtained using Chromate® microtiter plate reader. Percentage of biofilm reduction for the peptide was plotted assuming 100% biofilm growth is achieved on the bacterial wells without peptide treatment.

With `CC[C@H](C)[C@H](NC(=O)[C@H](CCCNC(=N)N)NC(=O)[C@H](CCC(N)=O)NC(=O)[C@@H](NC(=O)[C@@H](NC(=O)[C@H](CCCNC(=N)N)NC(=O)[C@H](CCCCN)NC(=O)[C@@H](N)Cc1ccccc1)[C@@H](C)CC)C(C)C)C(=O)N[C@@H](CCCCN)C(=O)N[C@@H](CC(=O)O)C(=O)N[C@@H](Cc1ccccc1)C(=O)N[C@@H](CC(C)C)C(=O)N[C@@H](CCCNC(=N)N)C(=O)N[C@@H](CC(N)=O)C(=O)N[C@@H](CC(C)C)C(=O)N[C@H](C(=O)N[C@@H](CS)C(=O)O)C(C)C` [FK-16Cys] (H-FKRIVQRIKDFLRNLVC-OH; N-terminus and C-terminus assumed) the “MIC range against almost all / most of the tested strains” value (ESKAPE pathogens) was 12.5 to 50 µM, the “50% hemolytic concentration (HL50)” value [1] was roughly 35 µM and the “MIC PA” value (P. aeruginosa PAO1) was greater than 50 µM. For the same compound, the CC50 at 1 hour [2] was greater than 100 µM, the “MIC EF” value (E. faecium ATCC51559) was 12.5 ± 0 µM (≈ 26.9 µg/mL) and the “MIC ECl” value (E. cloacae B2366-12) was 50 ± 0 µM (≈ 107 µg/mL). For the same compound, the “MIC SA” value (S. aureus USA300 LAC) was 18 ± 7.2 µM (≈ 38.7 µg/mL), the “MIC AB” value (A. baumannii B2367-12) was 12.5 ± 0 µM (≈ 26.9 µg/mL) and the “MIC EC” value (E. coli ATCC 25922 [3]) was 37.5 ± 17.6 µM (≈ 80.6 µg/mL).

With `CC(C)C[C@H](NC(=O)[C@H](Cc1c[nH]c2ccccc12)NC(=O)[C@H](Cc1c[nH]c2ccccc12)NC(=O)[C@@H](N)Cc1c[nH]c2ccccc12)C(=O)N[C@@H](CCCNC(=N)N)C(=O)N[C@@H](CCCNC(=N)N)C(=O)N[C@@H](CCCNC(=N)N)C(=O)N[C@@H](Cc1c[nH]c2ccccc12)C(N)=O` [Peptide I7R, WWWLRRRW] (H-WWWLRRRW-NH2; N-terminus assumed) the HL50 (human red blood cells) was 150 µM, the “E. coli (MIC)” value (E. coli ATCC 25922 [4]) was 6.2 µM and the “growth inhibition of S. aureus USA300” value (S. aureus USA300 [5]) was “almost equally effective to the WT”. The “time to entry of FITC into bacteria after peptide treatment” value (S. aureus USA300 [6]) was 28 s, the “killing in 24 hour preformed biofilms (LIVE/DEAD confocal)” value (S. aureus USA300 [7]) was “the majority of cells are red” and the “cell selectivity index (ratio of HL50 and MIC)” value (S. aureus USA300 [8]; HL50 human red blood cells / MIC S. aureus USA300) was 48. For the same compound, the “S. aureus (MIC)” value (S. aureus USA300 [8]; USA300, 20 h) was 3.1 µM and the “killing in preformed biofilms (XTT)” value (S. aureus USA300 [9]) was 80%.
